Patent US6716829B2, “Aldosterone antagonist and cyclooxygenase-2 inhibitor combination therapy to prevent or treat inflammation-related cardiovascular disorders” (Pharmacia Corporation, priority 2000, dated 2004)
Several values for one entry are separate records, joined by “and”; a condition that tells them apart may be missing. Equal values may be shown once.

Experiment: Assay C: body weight, left and right ventricle weight, tibia length (myocardial hypertrophy)
Assay type: in vivo, Male Sprague-Dawley rats
Details: for Body weight: aldosterone + salt at days 7, 14 and 30 vs vehicle + salt, eplerenone effect at day 30; for Ventricular hypertrophy (absolute ventricular weights, ventricular weight to tibia length ratios): 7 to 30 days
Experimental: The procedure of Assay B was expanded upon in a further study. […] Myocardial tissue from animals in each treatment group was examined after 7, 14, or 30 days of treatment.
Male Sprague-Dawley rats, weighing 230 to 250 g, (Harlan Sprague-Dawley Industries, Indianapolis, IN) were housed in a room 12-hours light/12-hours dark daily cycle at an ambient temperature of 22±1° C. (n=96). Animals were allowed one week to adjust after arrival and had free access to TEKLAD 22/5 rodent diet (Harlan TEKLAD, Madison, Wis.) and tap water until the initiation of the experiment.
Potassium chloride supplementation was added to the saline solution in order to prevent the potential hypokalemia associated with aldosterone excess.
At the time of the surgery, an Alzet 2002 osmotic minipump (Alza Corp., Palo Alto, Calif.) containing either vehicle (9% ethanol/87% propylene glycol/4% dH2O) or 1.0 mg/mL d-aldosterone (Sigma Chemical, St. Louis, Mo.) was inserted subcutaneously at the nape of the neck. Aldosterone was administered at a dose of 0.75 µg/hour. […] Animals were sacrificed from each group (n=8-13) after 7, 14, or 30 days of treatment.
Animals to be sacrificed after 7 or 14 days of treatment were uninephrectomized and implanted with an Alzet minipump. Animals treated for 30 days were uninephrectomized, fitted for Alzet minipumps, and implanted with radio telemetry units (model #TA11PA-C40, Data Sciences Inc., St. Paul, Minn.) according to the following procedure. Animals were anesthetized with 5% isoflurane (SOLVAY Animal Health Inc., Mendota Heights, Minn.), which was delivered in O2 using a VMS anesthesia instrument (Matrix Medical, Inc., Orchard Park, N.Y.). Anesthesia was maintained with 1-2% isoflurane throughout the surgical procedure. The surgery site was clipped, scrubbed with nolvasan, and sprayed with betadine. A rostral-caudal incision was made through the skin from the base of the rib cage to the pubic region using a #11 scalpel blade. A second incision was made through the muscles of the abdominal wall to expose the peritoneal cavity. The […], renal artery and vein of the left kidney were isolated, tied off with 4-0 silk, and the kidney excised and discarded. Organs were carefully displaced with tissue retractors in order to expose the abdominal aorta. A 1.5 cm segment just rostral to the bifurcation of the abdominal aorta into the iliac arteries was cleared of excessive connective tissue and 4-0 silk was used to make an anchor adjacent to the aorta. A microvascular clip was then placed at both ends of the cleaned region to stop excessive blood flow. Using a bent, 21 gauge needle, the abdominal aorta was penetrated. The cannula of the radio telemetry unit was inserted and stabilized in the aorta using the 4-0 silk anchor. Organs were repositioned and the telemetry unit was placed over the organs. Using a non-interrupted suture pattern with 4-0 silk, the abdominal wall was closed, and the skin was subsequently closed using a 4-0 silk in an interrupted suture pattern. Animals were injected around the sutures with 100 μL of the anesthetic Marcaine HCl (Sanofi Winthrop Pharmaceuticals, New York, N.Y.) and given an injection (i.m.) of the antibiotic Mandol (Eli Lilly & Co., Indianapolis, Ind.). Post-operative care included monitoring the animals on a heating pad during recovery from anesthesia until sternal recumbency was reestablished. Animals were monitored daily for signs of distress and infection at the surgical site. Animals displaying continued discomfort after surgery were treated with 0.1-0.5 mg/kg, s.c. Buphrenorphine (Rickett & Colman Pharmaceuticals, Inc. Richmond, Va.). Animals were then placed on tap water and TEKLAD 22/5 rodent diet (Harlan TEKLAD, Madison, Wis.).

[1] = 14-day protocol, individual rats and group Mean, listed as Eplerenone + aldosterone + salt
[2] = 14-day protocol, individual rats and group Mean, listed as Eplerenone + aldosterone + salt, mean
[3] = aldosterone + salt, eplerenone 100 mg/kg/day
[4] = individual rats and group mean, 7 days of treatment, aldosterone + salt, eplerenone 100 mg/kg/day
[5] = individual rats and group mean, 7 days of treatment, aldosterone + salt, eplerenone 100 mg/kg/day, group mean
[6] = mean ± SEM after 7 days of treatment, aldosterone + salt, eplerenone 100 mg/kg/day
[7] = mean ± SEM after 14 days of treatment, aldosterone + salt, eplerenone 100 mg/kg/day
[8] = mean ± SEM after 30 days of treatment, eplerenone dose 100 mg/kg/day
[9] = 14-day protocol, individual rats and group Mean, listed as Aldosterone + salt
[10] = 14-day protocol, individual rats and group Mean, listed as Aldosterone + salt, mean
[11] = 30-day protocol, individual rats and group Mean, listed as Aldosterone + salt
[12] = 30-day protocol, individual rats and group Mean, listed as Aldosterone + salt, group mean

## COC(=O)[C@@H]1CC2=CC(=O)CC[C@]2(C)[C@@]23O[C@@H]2C[C@@]2(C)[C@@H](CC[C@@]24CCC(=O)O4)[C@H]13 [Eplerenone]
[1]
  Left Ventricle Weight: 804 mg and 898 mg and 789 mg and 851 mg and 668 mg and 833 mg and 886 mg and 756 mg and 751 mg and 795 mg and 915 mg
  Left Ventricle Weight/ Tibia Length: 212 mg/cm and 236 mg/cm and 221 mg/cm and 176 mg/cm and 225 mg/cm and 233 mg/cm and 199 mg/cm and 198 mg/cm and 215 mg/cm and 235 mg/cm
  Right Ventricle Weight: 182 mg and 188 mg (2×) and 176 mg and 189 mg and 139 mg and 371 mg and 193 mg and 158 mg and 155 mg and 225 mg
  Right Ventricle Weight/ Tibia Length: 48 mg/cm and 49 mg/cm (3×) and 46 mg/cm and 37 mg/cm and 100 mg/cm and 51 mg/cm and 42 mg/cm (2×) and 58 mg/cm
[2]
  Left Ventricle Weight: 813 mg
  Left Ventricle Weight/ Tibia Length: 214 mg/cm
  Right Ventricle Weight: 197 mg
  Right Ventricle Weight/ Tibia Length: 52 mg/cm
  Body weight: significantly attenuated
[3]
  Ventricular hypertrophy (absolute ventricular weights, ventricular weight to tibia length ratios): did not impact
[4]
  Left Ventricle Weight: 859 mg and 712 mg and 618 mg and 658 mg and 754 mg and 733 mg and 726 mg and 696 mg and 700 mg and 688 mg
  Left Ventricle Weight/ Tibia Length: 220 mg/cm and 187 mg/cm and 167 mg/cm and 173 mg/cm and 198 mg/cm and 193 mg/cm and 191 mg/cm and 183 mg/cm and 184 mg/cm and 181 mg/cm
  Right Ventricle Weight: 216 mg and 181 mg (2×) and 154 mg and 174 mg and 192 mg and 171 mg and 190 mg and 170 mg and 187 mg
  Right Ventricle Weight/ Tibia Length: 55 mg/cm and 48 mg/cm (2×) and 42 mg/cm and 46 mg/cm and 51 mg/cm and 45 mg/cm (2×) and 50 mg/cm and 49 mg/cm
[5]
  Left Ventricle Weight: 714 mg
  Left Ventricle Weight/ Tibia Length: 188 mg/cm
  Right Ventricle Weight: 182 mg
  Right Ventricle Weight/ Tibia Length: 48 mg/cm
[6]
  Final Body Weight: 287 ± 4 g
  Left Ventricle Weight: 714 ± 20 mg
  Left Ventricle Weight/ Tibia Length: 188 ± 5 mg/cm
  Right Ventricle Weight: 182 ± 5 mg
  Right Ventricle Weight/ Tibia Length: 48 ± 1 mg/cm
[7]
  Final Body Weight: 283 ± 6 g
  Left Ventricle Weight: 813 ± 22 mg
  Left Ventricle Weight/ Tibia Length: 214 ± 6 mg/cm
  Right Ventricle Weight: 197 ± 19 mg
  Right Ventricle Weight/ Tibia Length: 52 ± 5 mg/cm
[8]
  Final Body Weight (g): 331 ± 7^# g
  Left Ventricle Weight: 936 ± 34 mg
  Left Ventricle Weight/ Tibia Length: 240 ± 9 mg/cm
  Right Ventricle Weight: 198 ± 6 mg
  Right Ventricle Weight/ Tibia Length: 51 ± 2 mg/cm

## C[C@]12CCC(=O)C=C1CC[C@@H]1[C@@H]2[C@@H](O)C[C@]2(C=O)[C@@H](C(=O)CO)CC[C@@H]12 [Aldosterone]
[9]
  Left Ventricle Weight: 846 mg and 784 mg and 912 mg and 720 mg and 923 mg and 854 mg and 894 mg and 859 mg and 750 mg and 818 mg and 746 mg and 700 mg
  Left Ventricle Weight/ Tibia Length: 223 mg/cm and 206 mg/cm and 234 mg/cm and 189 mg/cm and 237 mg/cm and 225 mg/cm and 229 mg/cm and 220 mg/cm and 197 mg/cm and 215 mg/cm and 202 mg/cm and 194 mg/cm
  Right Ventricle Weight: 194 mg and 189 mg and 208 mg and 174 mg and 217 mg and 186 mg and 216 mg and 171 mg and 153 mg and 195 mg and 172 mg
  Right Ventricle Weight/ Tibia Length: 51 mg/cm and 50 mg/cm and 53 mg/cm (3×) and 56 mg/cm and 49 mg/cm and 55 mg/cm and 44 mg/cm and 40 mg/cm and 48 mg/cm
[10]
  Left Ventricle Weight: 817 mg
  Left Ventricle Weight/ Tibia Length: 214 mg/cm
  Right Ventricle Weight: 189 mg
  Right Ventricle Weight/ Tibia Length: 50 mg/cm
[11]
  Left Ventricle Weight: 934 mg and 726 mg and 963 mg and 942 mg and 1030 mg and 837 mg and 962 mg and 873 mg and 919 mg
  Left Ventricle Weight/ Tibia Length: 234 mg/cm and 191 mg/cm and 247 mg/cm (2×) and 242 mg/cm (2×) and 264 mg/cm and 215 mg/cm and 218 mg/cm
  Right Ventricle Weight: 196 mg and 148 mg and 215 mg and 176 mg and 224 mg and 173 mg and 220 mg and 187 mg and 185 mg
  Right Ventricle Weight/ Tibia Length: 49 mg/cm (2×) and 39 mg/cm and 55 mg/cm and 45 mg/cm and 57 mg/cm and 44 mg/cm and 56 mg/cm and 47 mg/cm
[12]
  Left Ventricle Weight: 910 mg
  Left Ventricle Weight/ Tibia Length: 233 mg/cm
  Right Ventricle Weight: 192 mg
  Right Ventricle Weight/ Tibia Length: 49 mg/cm
  Body weight: significantly lower
[3]
  Ventricular hypertrophy (absolute ventricular weights, ventricular weight to tibia length ratios): Significant left and right ventricular hypertrophy
[6]
  Final Body Weight: 277 ± 5 g
  Left Ventricle Weight: 736 ± 25 mg
  Left Ventricle Weight/ Tibia Length: 194 ± 6 mg/cm
  Right Ventricle Weight: 183 ± 7 mg
  Right Ventricle Weight/ Tibia Length: 48 ± 2 mg/cm
[7]
  Final Body Weight: 270 ± 11 g
  Left Ventricle Weight: 817 ± 22 mg
  Left Ventricle Weight/ Tibia Length: 214 ± 5 mg/cm
  Right Ventricle Weight: 189 ± 5 mg
  Right Ventricle Weight/ Tibia Length: 50 ± 1 mg/cm
[8]
  Final Body Weight: 272 ± 10 g
  Left Ventricle Weight: 910 ± 29 mg
  Left Ventricle Weight/ Tibia Length: 233 ± 7 mg/cm
  Right Ventricle Weight: 192 ± 8 mg
  Right Ventricle Weight/ Tibia Length: 49 ± 2 mg/cm
